Results reported in US8906925B2, “Pyrido[4,3-B]indoles containing rigid moieties” (Medivation Technologies, Inc., priority 2008, dated 2014).
“And” between values parts separate entries of the source, which are not always exact repeats. Identical values can stand only once. Like-named read-outs stand apart in the source and are kept apart here.

Assays:
[1] = biological target: T1, human recombinant adrenergic α1D receptor (Homo sapiens, UniProt P25100); test: Adrenergic α1D radioligand binding ([3H]Prozosin); conditions: compound at 1 μM
T1 construct: expressed in transfected cells; host or cells: human embryonic kidney (HEK-293) cells
T1 sequence (P25100 1-572): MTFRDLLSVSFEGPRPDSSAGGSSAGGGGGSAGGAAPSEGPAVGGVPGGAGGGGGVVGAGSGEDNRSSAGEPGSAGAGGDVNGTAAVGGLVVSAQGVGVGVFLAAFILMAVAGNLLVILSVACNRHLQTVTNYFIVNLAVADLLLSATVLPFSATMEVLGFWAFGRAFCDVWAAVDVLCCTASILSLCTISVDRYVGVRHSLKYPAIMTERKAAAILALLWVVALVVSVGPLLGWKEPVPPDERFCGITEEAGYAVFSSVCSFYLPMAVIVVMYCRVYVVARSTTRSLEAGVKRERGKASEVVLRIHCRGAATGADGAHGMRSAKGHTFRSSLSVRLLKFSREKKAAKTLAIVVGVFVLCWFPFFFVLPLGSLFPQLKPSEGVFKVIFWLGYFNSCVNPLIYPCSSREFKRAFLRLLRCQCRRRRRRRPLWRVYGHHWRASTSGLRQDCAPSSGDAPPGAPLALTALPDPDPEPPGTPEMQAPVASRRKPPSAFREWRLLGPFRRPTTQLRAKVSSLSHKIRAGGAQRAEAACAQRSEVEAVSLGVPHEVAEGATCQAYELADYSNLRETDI
Experimental: Compounds of invention were incubated with 0.6 nM [^3H]Prozosin for 60 min. at 25° C. Non-specific binding was estimated in the presence of 10 μM phentolamine. Receptor proteins were filtered and washed, the filters were then counted to determine [^3H]Prozosin specifically bound. Compounds were screened at 1 μM or lower, using 1% DMSO as vehicle. Biochemical assay results are presented as the percent inhibition of specific binding in Table 9.

[2] = biological target: T2, human recombinant histamine H2 receptor (Homo sapiens, UniProt P25021); test: Histamine H2 radioligand binding ([125I]Aminopotentidine); conditions: read-out: Histamine Binding (1 μM) H2, percent inhibition of specific binding, 1 μM
T2 construct: expressed in transfected cells; host or cells: Chinese hamster ovary (CHO) K1 cells
T2 sequence (P25021 whole entry): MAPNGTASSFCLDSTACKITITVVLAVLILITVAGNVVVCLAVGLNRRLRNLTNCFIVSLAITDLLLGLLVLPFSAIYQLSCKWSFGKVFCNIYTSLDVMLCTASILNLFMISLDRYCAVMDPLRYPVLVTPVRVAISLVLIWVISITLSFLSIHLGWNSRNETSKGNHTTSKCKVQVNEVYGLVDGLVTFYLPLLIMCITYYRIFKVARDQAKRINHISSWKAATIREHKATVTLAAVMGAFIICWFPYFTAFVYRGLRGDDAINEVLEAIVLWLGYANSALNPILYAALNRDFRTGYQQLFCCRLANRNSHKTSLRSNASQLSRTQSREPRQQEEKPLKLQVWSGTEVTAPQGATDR
Outline: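 CHO-K1 cells expressing human recombinant H2 receptor, 50 mM phosphate buffer pH 7.4; compounds incubated with 0.1 nM [125I]aminopotentidine for 120 min at 25 °C. Nonspecific binding defined with 3 μM tiotidine; specifically bound radioligand counted after filtration and washing.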

[3] = biological target: T3, human recombinant serotonin (5-Hydroxytryptamine) 5-HT2A receptor (Homo sapiens, UniProt P28223); test: Serotonin 5-HT2A radioligand binding ([3H]Ketanserin); conditions: for inhibition at 1 µM: read-out: Inhibition of ligand binding, Serotonin 5-HT2A (percent inhibition of specific binding), compound at 1 μM; for Inhibition of ligand binding, Serotonin 5-HT2A (percent inhibition of specific binding): compound at 1 μM, 1 µM
T3 construct: expressed in transfected cells; host or cells: Chinese hamster ovary (CHO-K1) cells
T3 sequence (P28223 whole entry): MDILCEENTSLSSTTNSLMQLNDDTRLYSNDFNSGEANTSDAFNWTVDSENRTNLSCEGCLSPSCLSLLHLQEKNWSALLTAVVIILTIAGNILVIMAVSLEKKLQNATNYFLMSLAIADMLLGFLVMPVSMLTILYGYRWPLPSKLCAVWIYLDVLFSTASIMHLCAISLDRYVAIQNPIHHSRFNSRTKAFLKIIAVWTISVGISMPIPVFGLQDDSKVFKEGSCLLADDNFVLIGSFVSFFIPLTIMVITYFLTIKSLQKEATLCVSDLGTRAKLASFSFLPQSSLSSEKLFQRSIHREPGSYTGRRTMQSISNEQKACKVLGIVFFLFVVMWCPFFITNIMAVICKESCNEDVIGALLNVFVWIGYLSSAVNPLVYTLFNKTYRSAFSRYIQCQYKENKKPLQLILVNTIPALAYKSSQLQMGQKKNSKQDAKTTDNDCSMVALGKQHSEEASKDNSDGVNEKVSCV
Experimental: Compounds of the invention were incubated with 0.5 nM [^3H]Ketanserin for 60 min. at 25° C. Non-specific binding was estimated in the presence of 1 μM Mianserin. Receptor proteins were filtered and washed, the filters were then counted to determine [^3H]Ketanserin specifically bound.

[4] = biological target: human recombinant serotonin (5-Hydroxytryptamine) 5-HT7 receptor (Homo sapiens, UniProt P34969); test: Serotonin 5-HT7 radioligand binding ([3H]LSD); conditions: compound at 1 μM; for inhibition at 1 µM: read-out: Inhibition of ligand binding, Serotonin 5-HT7 (percent inhibition of specific binding)
Sequence of human recombinant serotonin (5-Hydroxytryptamine) 5-HT7 receptor (P34969 whole entry): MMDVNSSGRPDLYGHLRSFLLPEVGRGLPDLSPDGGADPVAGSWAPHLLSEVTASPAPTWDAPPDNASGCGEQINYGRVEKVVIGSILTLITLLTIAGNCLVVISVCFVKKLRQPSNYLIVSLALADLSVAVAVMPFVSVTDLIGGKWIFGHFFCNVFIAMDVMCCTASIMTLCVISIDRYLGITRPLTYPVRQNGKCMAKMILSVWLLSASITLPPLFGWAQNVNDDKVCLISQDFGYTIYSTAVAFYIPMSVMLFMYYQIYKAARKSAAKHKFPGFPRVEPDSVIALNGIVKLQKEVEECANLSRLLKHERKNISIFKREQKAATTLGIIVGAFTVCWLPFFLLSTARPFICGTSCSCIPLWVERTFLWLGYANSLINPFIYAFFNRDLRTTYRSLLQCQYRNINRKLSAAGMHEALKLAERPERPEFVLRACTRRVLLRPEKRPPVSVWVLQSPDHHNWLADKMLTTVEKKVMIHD
Description: Receptor proteins were filtered and washed, the filters were then counted to determine [^3H]LSD specifically bound.

[5] = biological target: T4, human recombinant serotonin (5-Hydroxytryptamine) 5-HT6 receptor (Homo sapiens, UniProt P50406); test: Serotonin 5-HT6 radioligand binding ([3H]LSD); conditions: compound at 1 μM; for inhibition at 1 µM: read-out: Inhibition of ligand binding, Serotonin 5-HT6 (percent inhibition of specific binding); for Inhibition of ligand binding, Serotonin 5-HT6 (percent inhibition of specific binding): 1 µM
T4 construct: expressed in transfected cells; host or cells: human HeLa cells
T4 sequence (P50406 whole entry): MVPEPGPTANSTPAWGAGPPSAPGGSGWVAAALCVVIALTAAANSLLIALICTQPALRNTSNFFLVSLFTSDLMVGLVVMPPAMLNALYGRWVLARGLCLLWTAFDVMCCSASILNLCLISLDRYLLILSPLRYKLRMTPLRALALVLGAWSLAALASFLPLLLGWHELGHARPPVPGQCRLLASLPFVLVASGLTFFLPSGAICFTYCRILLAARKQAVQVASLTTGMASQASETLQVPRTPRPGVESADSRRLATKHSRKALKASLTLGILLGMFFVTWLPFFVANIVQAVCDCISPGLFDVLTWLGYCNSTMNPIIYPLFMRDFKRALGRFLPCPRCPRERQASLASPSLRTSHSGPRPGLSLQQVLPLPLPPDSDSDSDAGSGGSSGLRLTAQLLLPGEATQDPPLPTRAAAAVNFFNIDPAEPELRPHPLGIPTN
Experimental: Compounds of the invention were incubated with 1.5 nM [3H]Lysergic acid diethylamide (LSD) for 120 min. at 37° C. […] Receptor proteins were filtered and washed, the filters were then counted to determine [3H]LSD specifically bound. Compounds were screened at 1 μM or lower, using 1% DMSO as vehicle. Biochemical assay results are presented as the percent inhibition of specific binding in Table 10.

[6] = biological target: T5, human recombinant adrenergic α2A receptor (Homo sapiens, UniProt P08913); test: Adrenergic α2A radioligand binding ([3H]MK-912); conditions: compound at 1 μM
T5 construct: expressed in transfected cells; host or cells: insect Sf9 cells
T5 sequence (P08913 1-465): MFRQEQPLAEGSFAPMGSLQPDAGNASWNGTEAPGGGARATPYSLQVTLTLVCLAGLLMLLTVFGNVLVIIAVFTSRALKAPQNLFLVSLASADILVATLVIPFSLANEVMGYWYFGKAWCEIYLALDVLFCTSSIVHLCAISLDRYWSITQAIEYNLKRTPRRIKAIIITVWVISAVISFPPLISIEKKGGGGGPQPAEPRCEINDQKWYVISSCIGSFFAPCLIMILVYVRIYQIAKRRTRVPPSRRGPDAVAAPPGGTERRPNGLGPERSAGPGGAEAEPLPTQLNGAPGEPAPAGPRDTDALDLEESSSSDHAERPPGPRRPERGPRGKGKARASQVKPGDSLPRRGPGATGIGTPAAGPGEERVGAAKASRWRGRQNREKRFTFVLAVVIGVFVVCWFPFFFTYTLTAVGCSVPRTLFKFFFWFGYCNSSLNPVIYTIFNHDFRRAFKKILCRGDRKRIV
Outline: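 Sf9-expressed human receptor in 50 mM Tris-HCl pH 7.4, 12.5 mM MgCl2, 2 mM EDTA; compounds at 1 μM or lower (1% DMSO) incubated with 1 nM [3H]MK-912 for 60 min at 25° C. Non-specific binding defined with 10 μM WB-4101; filtered bound radioactivity counted, reported as percent inhibition of specific binding.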

[7] = percent inhibition of specific binding, read-out: Inhibition of ligand binding, Adrenergic α1D
[8] = percent inhibition of specific binding, read-out: Inhibition of ligand binding, Adrenergic α2A
[9] = read-out: Inhibition of ligand binding, Adrenergic α1D (percent inhibition of specific binding)
[10] = read-out: Inhibition of ligand binding, Adrenergic α2A (percent inhibition of specific binding)

Row | Structure (SMILES) | inhibition at 1 µM [1, 7] | inhibition at 1 µM [2] | inhibition at 1 µM [3] | inhibition at 1 µM [4] | inhibition at 1 µM [5] | inhibition at 1 µM [6, 8] | Inhibition of ligand binding, Serotonin 5-HT2A (percent inhibition of specific binding) [3] | Inhibition of ligand binding, Serotonin 5-HT7 (percent inhibition of specific binding) [4] | Inhibition of ligand binding, Serotonin 5-HT6 (percent inhibition of specific binding) [5] | Inhibition of ligand binding, Serotonin 5-HT7 (percent inhibition of specific binding) ([4]; 1 µM) | inhibition at 1 µM [1, 9] | inhibition at 1 µM [6, 10]
1 | Cc1ccc2c(c1)c1c(n2CC(O)(c2ccccc2)c2ccc(F)cc2)CCN(C)C1 (stereo not shown) [Compound No. 176, 2-(2,8-dimethyl-3,4-dihydro-1H-pyrido[4,3-b]indol-5(2H)-yl)-1-(4-fluorophenyl)-1-phenylethanol] | 42% | 74% | 97% | 65% | 82% | 94% |  |  |  |  |  | 
2 | CCOC(=O)/C=C(/Cn1c2c(c3cc(C)ccc31)CN(C)CC2)c1ccccc1 [Compound No. 347, (E)-ethyl 4-(2,8-dimethyl-3,4-dihydro-1H-pyrido[4,3-b]indol-5(2H)-yl)-3-phenylbut-2-enoate] | 90% | 87% | 100% | 101% | 101% | 96% |  |  |  |  |  | 
3 | CN1CCc2c(c3cc(Cl)ccc3n2C/C(=C\CCO)c2ccc(F)cc2)C1 [Compound No. 348, (Z)-5-(8-chloro-2-methyl-3,4-dihydro-1H-pyrido[4,3-b]indol-5(2H)-yl)-4-(4-fluorophenyl)pent-3-en-1-ol] | 35% | 73% | 99% | 93% | 94% | 92% | 100% | 93/93% | 98% |  |  | 
4 | CN1CCc2c(c3cc(Cl)ccc3n2C/C(=C/CCO)c2ccc(F)cc2)C1 [Compound No. 349, (E)-5-(8-chloro-2-methyl-3,4-dihydro-1H-pyrido[4,3-b]indol-5(2H)-yl)-4-(4-fluorophenyl)pent-3-en-1-ol] | 60% | 84% | 97% | 93% | 102% | 97% | 100% |  | 103% | 100% |  | 
5 | CCOC(=O)/C=C(/Cn1c2c(c3cc(C)ccc31)CN(C)CC2)c1ccc(F)cc1 [Compound No. 350, (E)-ethyl 4-(2,8-dimethyl-3,4-dihydro-1H-pyrido[4,3-b]indol-5(2H)-yl)-3-(4-fluorophenyl)but-2-enoate] |  | 93% | 100% | 71% | 103% |  |  |  |  |  | 85% | 95%
6 | CCC/C=C(/Cn1c2c(c3cc(Cl)ccc31)CN(C)CC2)c1ccc(F)cc1 [Compound No. 351, (E)-8-chloro-5-(2-(4-fluorophenyl)hex-2-enyl)-2-methyl-2,3,4,5-tetrahydro-1H-pyrido[4,3-b]indole] |  | 100% | 100% | 90% | 103% |  |  |  |  |  | 45% | 84%
7 | Cc1ccc2c(c1)c1c(n2C/C(=C/C(=O)O)c2ccc(F)cc2)CCN(C)C1 [Compound No. 352, (E)-4-(2,8-dimethyl-3,4-dihydro-1H-pyrido[4,3-b]indol-5(2H)-yl)-3-(4-fluorophenyl)but-2-enoic acid] |  | 15% | 84% | 52% | 32% |  |  |  |  |  | 11% | 34%
8 | Cc1ccc2c(c1)c1c(n2C#Cc2ccc(C)nc2)CCN(C)C1 [Compound No. 476, 2,8-dimethyl-5-((6-methylpyridin-3-yl)ethynyl)-2,3,4,5-tetrahydro-1H-pyrido[4,3-b]indole] |  | 88% | 100% | 90% |  |  |  |  | 64% and 86% | 92% | 95% | 96%
9 | COc1ccc(C#Cn2c3c(c4cc(Cl)ccc42)CN(C)CC3)cc1F [Compound No. 477, 8-chloro-5-((3-fluoro-4-methoxyphenyl)ethynyl)-2-methyl-2,3,4,5-tetrahydro-1H-pyrido[4,3-b]indole] |  | 97% | 95% | 65% | 89% |  |  |  |  |  | 79% | 97%
10 | Cc1ccc2c(c1)c1c(n2C#Cc2ccc(F)cc2)CCN(C)C1 [Compound No. 478, 5-((4-fluorophenyl)ethynyl)-2,8-dimethyl-2,3,4,5-tetrahydro-1H-pyrido[4,3-b]indole] |  | 94% | 99% | 96% | 97% |  |  |  |  |  | 92% | 96%
11 | COC(=O)c1ccc2c(c1)c1c(n2C#Cc2ccc(F)cc2)CCN(C)C1 [Compound No. 479, methyl 5-((4-fluorophenyl)ethynyl)-2-methyl-2,3,4,5-tetrahydro-1H-pyrido[4,3-b]indole-8-carboxylate] |  | 51% | 78% | 17% | 91% |  |  |  |  |  | 55% | 83%
12 | CN1CCc2c(c3cc(Cl)ccc3n2C#Cc2ccc(Cl)cc2)C1 [Compound No. 480, 8-chloro-5-((4-chlorophenyl)ethynyl)-2-methyl-2,3,4,5-tetrahydro-1H-pyrido[4,3-b]indole] |  | 93% | 98% | 84% | 67% |  |  |  |  |  | 68% | 94%
13 | Cc1ccc2c(c1)c1c(n2C#Cc2ccc(Cl)cc2)CCN(C)C1 [Compound No. 481, 5-((4-chlorophenyl)ethynyl)-2,8-dimethyl-2,3,4,5-tetrahydro-1H-pyrido[4,3-b]indole] |  | 97% | 101% | 84% | 87% |  |  |  |  |  | 77% | 99%
